pIC50: −log10 of the molar value.
Each compound was assayed against T1, human kinase Mps-1 (Homo sapiens, UniProt P33981) (assay: Mps-1 kinase assay (HTRF)). Conditions: lowATP; mean; read-out: Mps1 lowATP mean IC50.
T1 construct: N-terminally GST-tagged human full length recombinant Mps-1 kinase; purchased Invitrogen, Karslruhe, Germany PV4071
T1 sequence (P33981 1-857): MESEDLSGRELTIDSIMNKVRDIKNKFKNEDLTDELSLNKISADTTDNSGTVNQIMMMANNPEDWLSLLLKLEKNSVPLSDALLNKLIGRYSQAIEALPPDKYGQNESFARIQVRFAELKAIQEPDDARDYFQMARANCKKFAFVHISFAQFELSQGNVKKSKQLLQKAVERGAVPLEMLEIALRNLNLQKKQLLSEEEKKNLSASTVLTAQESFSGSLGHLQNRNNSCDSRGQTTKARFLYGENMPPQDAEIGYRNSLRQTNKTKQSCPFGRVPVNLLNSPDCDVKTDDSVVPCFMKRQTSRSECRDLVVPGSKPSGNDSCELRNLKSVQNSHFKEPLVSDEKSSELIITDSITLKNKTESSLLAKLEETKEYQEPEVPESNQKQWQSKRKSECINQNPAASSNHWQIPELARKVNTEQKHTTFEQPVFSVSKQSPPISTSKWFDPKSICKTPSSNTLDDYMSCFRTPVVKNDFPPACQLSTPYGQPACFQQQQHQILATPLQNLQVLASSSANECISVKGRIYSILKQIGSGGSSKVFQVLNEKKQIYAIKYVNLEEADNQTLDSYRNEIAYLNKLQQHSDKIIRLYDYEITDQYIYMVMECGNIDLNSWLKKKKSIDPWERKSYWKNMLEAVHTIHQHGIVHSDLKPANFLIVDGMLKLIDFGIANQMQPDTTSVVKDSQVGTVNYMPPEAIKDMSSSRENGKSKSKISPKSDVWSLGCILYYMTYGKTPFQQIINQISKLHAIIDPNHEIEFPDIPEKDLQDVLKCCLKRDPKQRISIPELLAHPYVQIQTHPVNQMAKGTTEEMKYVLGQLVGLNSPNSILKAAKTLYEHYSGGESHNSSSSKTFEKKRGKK
Format: biochemical
In short: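 HTRF readout: EDTA-stopped reactions incubated 1 h with europium anti-phospho(Ser/Thr) antibody and streptavidin-XLent, emission ratio 665/620 nm after 350 nm excitation. Kinase step: compound pre-bound 15 min to ~1 nM GST-Mps-1, then 60 min at 22 °C with ATP and biotin-peptide substrate; inhibition scaled between no-inhibitor (0%) and no-enzyme (100%) controls.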

SMILES | pIC50
CNC(=O)Nc1ccc(-c2cnc3c(NCc4cccs4)nc4cc(C)c(C)cc4n23)cc1 [Example 2-167, 1-(4-{7,8-dimethyl-4-[(thiophen-2-ylmethyl)amino]imidazo[1,2-a]quinoxalin-1-yl}phenyl)-3-methylurea] | 6.33
CCNc1nc2cc(C)c(C)cc2n2c(-c3ccc(NC(=O)NC)cc3)cnc12 [Example 2-168, 1-{4-[4-(ethylamino)-7,8-dimethylimidazo[1,2-a]quinoxalin-1-yl]phenyl}-3-methylurea] | 6.87
CNC(=O)Nc1ccc(-c2cnc3c(NCCCn4ccnc4)nc4cc(C)c(C)cc4n23)cc1 [Example 2-169, 1-[4-(4-{[3-(1H-imidazol-1-yl)propyl]amino}-7,8-dimethylimidazo[1,2-a]quinoxalin-1-yl)phenyl]-3-methylurea] | 6.56
CNC(=O)Nc1ccc(-c2cnc3c(NCC4CC4)nc4cc(C)c(C)cc4n23)cc1 [Example 2-170, 1-(4-{4-[(cyclopropylmethyl)amino]-7,8-dimethylimidazo[1,2-a]quinoxalin-1-yl}phenyl)-3-methylurea] | 6.51
CNC(=O)Nc1ccc(-c2cnc3c(NCc4cccnc4)nc4cc(C)c(C)cc4n23)cc1 [Example 2-171, 1-(4-{7,8-dimethyl-4-[(pyridin-3-ylmethyl)amino]imidazo[1,2-a]quinoxalin-1-yl}phenyl)-3-methylurea] | 6.55
CNC(=O)Nc1ccc(-c2cnc3c(NCc4ccncc4)nc4cc(C)c(C)cc4n23)cc1 [Example 2-172, 1-(4-{7,8-dimethyl-4-[(pyridin-4-ylmethyl)amino]imidazo[1,2-a]quinoxalin-1-yl}phenyl)-3-methylurea] | 6.58
CNC(=O)Nc1ccc(-c2cnc3c(NCC(C)C)nc4cc(C)c(C)cc4n23)cc1 [Example 2-173, 1-(4-{7,8-dimethyl-4-[(2-methylpropyl)amino]imidazo[1,2-a]quinoxalin-1-yl}phenyl)-3-methylurea] | 6.68
CNC(=O)Nc1ccc(-c2cnc3c(NCCC(N)=O)nc4cc(C)c(C)cc4n23)cc1 [Example 2-174, N^3-(7,8-dimethyl-1-{4-[(methylcarbamoyl)amino]phenyl}imidazo[1,2-a]quinoxalin-4-yl)-beta-alaninamide] | 6.11
CNC(=O)Nc1ccc(-c2cnc3c(NCc4ccnn4C)nc4cc(C)c(C)cc4n23)cc1 [Example 2-175, 1-[4-(7,8-dimethyl-4-{[(1-methyl-1H-pyrazol-5-yl)methyl]amino}imidazo[1,2-a]quinoxalin-1-yl)phenyl]-3-methylurea] | 6.70
CNC(=O)Nc1ccc(-c2cnc3c(NCc4cnn(C)c4)nc4cc(C)c(C)cc4n23)cc1 [Example 2-176, 1-[4-(7,8-dimethyl-4-{[(1-methyl-1H-pyrazol-4-yl)methyl]amino}imidazo[1,2-a]quinoxalin-1-yl)phenyl]-3-methylurea] | 6.21
CNC(=O)Nc1ccc(-c2cnc3c(NCCS(N)(=O)=O)nc4cc(C)c(C)cc4n23)cc1 [Example 2-177, 2-[(7,8-dimethyl-1-{4-[(methylcarbamoyl)amino]phenyl}imidazo[1,2-a]quinoxalin-4-yl)amino]ethanesulfonamide] | 5.65
CCCNc1nc2cc(C)c(C)cc2n2c(-c3ccc(C(=O)NC4CC4)c(Cl)c3)cnc12 [Example 2-178, 2-chloro-N-cyclopropyl-4-[7,8-dimethyl-4-(propylamino)imidazo[1,2-a]quinoxalin-1-yl]benzamide] | 7.61
Cc1cc2nc(NCCO)c3ncc(-c4ccc(C(=O)NC5CC5)c(Cl)c4)n3c2cc1C [Example 2-179, 2-chloro-N-cyclopropyl-4-{4-[(2-hydroxyethyl)amino]-7,8-dimethylimidazo[1,2-a]quinoxalin-1-yl}benzamide] | 6.89
Cc1cc2nc(NCCCN3CCOCC3)c3ncc(-c4ccc(C(=O)NC5CC5)c(Cl)c4)n3c2cc1C [Example 2-180, 2-chloro-N-cyclopropyl-4-(7,8-dimethyl-4-{[3-(morpholin-4-yl)propyl]amino}imidazo[1,2-a]quinoxalin-1-yl)benzamide] | 6.33
Cc1cc2nc(NCCC(C)C)c3ncc(-c4ccc(C(=O)NC5CC5)c(Cl)c4)n3c2cc1C [Example 2-181, 2-chloro-N-cyclopropyl-4-{7,8-dimethyl-4-[(3-methylbutyl)amino]imidazo[1,2-a]quinoxalin-1-yl}benzamide] | 7.14
Cc1cc2nc(NCCCN3CCCC3=O)c3ncc(-c4ccc(C(=O)NC5CC5)c(Cl)c4)n3c2cc1C [Example 2-182, 2-chloro-N-cyclopropyl-4-(7,8-dimethyl-4-{[3-(2-oxopyrrolidin-1-yl)propyl]amino}imidazo[1,2-a]quinoxalin-1-yl)benzamide] | 6.35
COCCNc1nc2cc(C)c(C)cc2n2c(-c3ccc(C(=O)NC4CC4)c(Cl)c3)cnc12 [Example 2-183, 2-chloro-N-cyclopropyl-4-{4-[(2-methoxyethyl)amino]-7,8-dimethylimidazo[1,2-a]quinoxalin-1-yl}benzamide] | 6.95
Cc1cc2nc(NCCCCO)c3ncc(-c4ccc(C(=O)NC5CC5)c(Cl)c4)n3c2cc1C [Example 2-184, 2-chloro-N-cyclopropyl-4-{4-[(4-hydroxybutyl)amino]-7,8-dimethylimidazo[1,2-a]quinoxalin-1-yl}benzamide] | 7.48
CCNc1nc2cc(C)c(C)cc2n2c(-c3ccc(C(=O)NC4CC4)c(Cl)c3)cnc12 [Example 2-185, 2-chloro-N-cyclopropyl-4-[4-(ethylamino)-7,8-dimethylimidazo[1,2-a]quinoxalin-1-yl]benzamide] | 7.01
Cc1cc2nc(NCCCO)c3ncc(-c4ccc(C(=O)NC5CC5)c(Cl)c4)n3c2cc1C [Example 2-186, 2-chloro-N-cyclopropyl-4-{4-[(3-hydroxypropyl)amino]-7,8-dimethylimidazo[1,2-a]quinoxalin-1-yl}benzamide] | 6.93
CCCCNc1nc2cc(C)c(C)cc2n2c(-c3ccc(C(=O)NC4CC4)c(Cl)c3)cnc12 [Example 2-187, 4-[4-(butylamino)-7,8-dimethylimidazo[1,2-a]quinoxalin-1-yl]-2-chloro-N-cyclopropylbenzamide] | 7.57
CC(=O)NCCNc1nc2cc(C)c(C)cc2n2c(-c3ccc(C(=O)NC4CC4)c(Cl)c3)cnc12 [Example 2-188, 4-(4-{[2-(acetylamino)ethyl]amino}-7,8-dimethylimidazo[1,2-a]quinoxalin-1-yl)-2-chloro-N-cyclopropylbenzamide] | 6.27
Cc1cc2nc(NCCCn3ccnc3)c3ncc(-c4ccc(C(=O)NC5CC5)c(Cl)c4)n3c2cc1C [Example 2-189, 2-chloro-N-cyclopropyl-4-(4-{[3-(1H-imidazol-1-yl)propyl]amino}-7,8-dimethylimidazo[1,2-a]quinoxalin-1-yl)benzamide] | 7.08
Cc1cc2nc(NCC3CC3)c3ncc(-c4ccc(C(=O)NC5CC5)c(Cl)c4)n3c2cc1C [Example 2-190, 2-chloro-N-cyclopropyl-4-{4-[(cyclopropylmethyl)amino]-7,8-dimethylimidazo[1,2-a]quinoxalin-1-yl}benzamide] | 7.36
Cc1cc2nc(NCc3ccccn3)c3ncc(-c4ccc(C(=O)NC5CC5)c(Cl)c4)n3c2cc1C [Example 2-191, 2-chloro-N-cyclopropyl-4-{7,8-dimethyl-4-[(pyridin-2-ylmethyl)amino]imidazo[1,2-a]quinoxalin-1-yl}benzamide] | 6.60
Cc1cc2nc(NCc3cccnc3)c3ncc(-c4ccc(C(=O)NC5CC5)c(Cl)c4)n3c2cc1C [Example 2-192, 2-chloro-N-cyclopropyl-4-{7,8-dimethyl-4-[(pyridin-3-ylmethyl)amino]imidazo[1,2-a]quinoxalin-1-yl}benzamide] | 7.45
Cc1cc2nc(NCc3ccncc3)c3ncc(-c4ccc(C(=O)NC5CC5)c(Cl)c4)n3c2cc1C [Example 2-193, 2-chloro-N-cyclopropyl-4-{7,8-dimethyl-4-[(pyridin-4-ylmethyl)amino]imidazo[1,2-a]quinoxalin-1-yl}benzamide] | 7.29
Cc1cc2nc(NCC(C)C)c3ncc(-c4ccc(C(=O)NC5CC5)c(Cl)c4)n3c2cc1C [Example 2-194, 2-chloro-N-cyclopropyl-4-{7,8-dimethyl-4-[(2-methylpropyl)amino]imidazo[1,2-a]quinoxalin-1-yl}benzamide] | 7.64
Cc1cc2nc(NCCC(N)=O)c3ncc(-c4ccc(C(=O)NC5CC5)c(Cl)c4)n3c2cc1C [Example 2-195, 4-{4-[(3-amino-3-oxopropyl)amino]-7,8-dimethylimidazo[1,2-a]quinoxalin-1-yl}-2-chloro-N-cyclopropylbenzamide] | 6.66
